Test results: paper PMC7555035, “In Vitro Inhibition of Phosphodiesterase 3B (PDE 3B) by Anthocyanin-Rich Fruit Juice Extracts and Selected Anthocyanins” (International Journal of Molecular Sciences, 2020)
Entries after “also recorded” stand apart in the source; their conditions may differ.

What was measured:
[1] = molecular target: T1, PDE 3B (recombinant, EC 3.1.4.17) (Homo sapiens, UniProt Q13370); assay: cAMP-specific PDE activity assay (cell-free, radiochemical); format: biochemical; conditions: for IC50 of single anthocyanins: given in µg/mL; for IC50: mean ± SD, n = 3–4, read-out: IC50 of cyanidin and anthocyanins; for influence on PDE activity (in words): c = 25–2000 µM
T1 construct: purchased Sigma Aldrich (St. Louis, MO, USA)
Procedure: The inhibitory effect of each extract on PDE 3B was measured according to the method published by Pöch et al. with slight modifications. One hundred microliters (100 µL) of the sample and 20 µL of PDE 3B (200 Units/mL) were incubated for 15 min at 4°C. Afterwards, a 50 µL volume of cAMP Mix (30 mM Tris/HCl pH 7.4, 9 mM MgCl2, 3 mM 5′AMP, 3 µM cAMP, 2.6 µCi/mL [2,8-^3H]-cAMP) was added and the mixture incubated for 25 min at 37 °C to allow for reaction. […] Experiments were performed in triplicate, and IC50 values were determined after at least three independent experiments. The ranges of test concentrations of extracts and single substances were intentionally chosen to align with similar ranges used for previous studies (extracts < 600 µg/mL; ACs < 2000 µM) to facilitate comparison with previous experiments.

[2] = system: phosphodiesterase 3′,5′-cyclic nucleotide 5′nucleotidohydrolase; parameters: method as in PMID 18617377; conditions: 0.01%, diluted in dimethyl sulfoxide; cited from earlier work
[3] = system: cytosolic PDE activity in HT29 cells; parameters: method as in PMID 15497183; conditions: cited from earlier work
[4] = parameters: method as in PMID 22913378; conditions: cited from earlier work
[5] = system: PDE in human platelet lysates; parameters: method as in PMID 25247601; conditions: in vitro; cited from earlier work
PDE 1 = system: PDE 1; parameters: method as in PMID 27558680; conditions: in vitro; cited from earlier work
human PDE 5A1 = system: human PDE 5A1; parameters: method as in PMID 15769121; conditions: cited from earlier work
[6] = molecular target: phosphodiesterase from rat adipocytes; parameters: method as in PMID 1384499; conditions: cited from earlier work
[7] = system: PDE isolated from the lung tumor xenograft cell line LXFL529L; parameters: method as in PMID 29113064; conditions: cited from earlier work

T1 sequence (Q13370 whole entry, species assumed): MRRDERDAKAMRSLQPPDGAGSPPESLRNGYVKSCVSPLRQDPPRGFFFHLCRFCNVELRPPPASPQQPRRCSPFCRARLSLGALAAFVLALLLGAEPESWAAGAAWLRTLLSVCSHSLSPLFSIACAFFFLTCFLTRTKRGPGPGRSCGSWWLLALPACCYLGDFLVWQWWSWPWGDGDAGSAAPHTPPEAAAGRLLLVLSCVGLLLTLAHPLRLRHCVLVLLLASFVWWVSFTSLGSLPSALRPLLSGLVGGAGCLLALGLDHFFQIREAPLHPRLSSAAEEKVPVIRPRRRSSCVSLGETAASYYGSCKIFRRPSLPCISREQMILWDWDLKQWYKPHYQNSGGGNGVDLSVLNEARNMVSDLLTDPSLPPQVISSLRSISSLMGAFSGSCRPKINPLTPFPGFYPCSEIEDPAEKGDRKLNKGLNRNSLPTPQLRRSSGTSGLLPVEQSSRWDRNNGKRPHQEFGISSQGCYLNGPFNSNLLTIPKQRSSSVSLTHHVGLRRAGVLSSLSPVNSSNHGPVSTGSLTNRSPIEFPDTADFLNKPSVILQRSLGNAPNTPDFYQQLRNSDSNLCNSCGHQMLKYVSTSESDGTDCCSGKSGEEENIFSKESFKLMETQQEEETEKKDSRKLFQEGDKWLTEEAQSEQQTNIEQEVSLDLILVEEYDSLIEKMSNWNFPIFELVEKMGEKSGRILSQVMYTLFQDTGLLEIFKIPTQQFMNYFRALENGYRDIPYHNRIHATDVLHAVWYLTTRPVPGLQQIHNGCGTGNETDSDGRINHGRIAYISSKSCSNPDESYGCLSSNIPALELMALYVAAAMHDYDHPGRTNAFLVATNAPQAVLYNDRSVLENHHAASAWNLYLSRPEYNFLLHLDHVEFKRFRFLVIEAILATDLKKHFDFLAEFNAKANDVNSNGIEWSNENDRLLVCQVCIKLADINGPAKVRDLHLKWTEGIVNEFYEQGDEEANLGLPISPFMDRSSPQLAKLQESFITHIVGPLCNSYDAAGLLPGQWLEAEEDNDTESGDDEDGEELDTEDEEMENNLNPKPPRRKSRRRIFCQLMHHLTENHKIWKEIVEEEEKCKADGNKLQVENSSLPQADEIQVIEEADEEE

Structure (SMILES): OC[C@H]1O[C@@H](Oc2cc3c(O)cc(O)cc3[o+]c2-c2ccc(O)c(O)c2)[C@H](O)[C@@H](O)[C@@H]1O.[Cl-] [cyanidin-3-glucoside, cyanidin-3-glucoside chloride]
- inhibition of PDE 3B ([1]; c = 600 µM): 63%
- rel. PDE activity (% of solvent control) ([1]; c = 600 µM): around 40%
- IC50 of single anthocyanins [1]: 134 ± 25 µg/mL
- IC50 [1]: 299 ± 56 µM
- PDE inhibition [2]: 99%

Structure (SMILES): Oc1cc(O)c2cc(O)c(-c3ccc(O)c(O)c3)[o+]c2c1 [cyanidin, cyanidin chloride]
- remaining activity at 11 µM ([1]; c = 11 µM, read-out: rel. PDE 3B activity (% of solvent control)): 94.7 ± 2.8%
- remaining activity at 271 µM ([1]; c = 271 µM, read-out: rel. PDE 3B activity (% of solvent control)): 28.7 ± 6.5%
- IC50 [1]: 105 ± 11 µM
- IC50 [3]: ~175 µM
- stability in cell culture medium (in words) [4]: degraded rapidly

Structure (SMILES): Cn1c(=O)c2c(ncn2C)n(C)c1=O [caffeine]
- PDE inhibition [2]: 56%
- IC50 [5]: 700 µM

Structure (SMILES): O=C(O)c1cc(O)c(O)c(O)c1 [gallic acid]
- IC50 (PDE 1): 325 ± 3.62 µM

Structure (SMILES): OC[C@H]1OC(Oc2cc3c(O)cc(O)cc3[o+]c2-c2ccc(O)c(O)c2)[C@H](O)[C@@H](O)[C@H]1O.[Cl-] (stereo partly drawn) [cyanidin-3-galactoside, cyanidin-3-galactoside chloride]
- concentration below which no influence on PDE activity [1]: below 884 µM
- rel. PDE activity (% of solvent control) ([1]; c = 2000 µM): 52.3 ± 13.7%
- influence on PDE activity (in words) [1]: little PDE inhibition

Structure (SMILES): COc1cc(-c2[o+]c3cc(O)cc(O)c3cc2O[C@@H]2O[C@H](CO)[C@@H](O)[C@H](O)[C@H]2O)ccc1O.[Cl-] [peonidin-3-glucoside, Peonidin-3-glucoside chloride]
- concentration above which PDE activity significantly diminished [1]: above 55 µM
- rel. PDE 3B activity (% of solvent control) ([1]; c = 271 µM): comparable to those seen with caffeine
- IC50 of single anthocyanins [1]: 56 ± 20 µg/mL
- IC50 [1]: 120 ± 44 µM

Structure (SMILES): COc1cc(-c2[o+]c3cc(O)cc(O)c3cc2O)cc(OC)c1O [malvidin]
- IC50 (human PDE 5A1): 24.9 µM

Structure (SMILES): COc1cc(-c2[o+]c3cc(O)cc(O)c3cc2O[C@@H]2O[C@H](CO)[C@@H](O)[C@H](O)[C@H]2O)cc(O)c1O.[Cl-] [petunidin-3-glucoside, petunidin-3-glucoside chloride]
- rel. PDE activity (% of solvent control) ([1]; c = 600 µM): around 40%
- IC50 [1]: 448 ± 39 µM

Structure (SMILES): C[C@@H]1O[C@@H](OC[C@H]2O[C@@H](Oc3cc4c(O)cc(O)cc4[o+]c3-c3ccc(O)c(O)c3)[C@H](O)[C@@H](O)[C@@H]2O)[C@H](O)[C@H](O)[C@H]1O.[Cl-] [cyanidin-3-rutinoside, cyanidin-3-rutinoside chloride]
- influence on PDE activity (in words) [1]: inactive

Structure (SMILES): CC(C)Cn1c(=O)n(C)c(=O)c2[nH]cnc21
- IC50 [6]: 30 to 50 µM

Structure (SMILES): O=c1cc(-c2ccc(O)c(O)c2)oc2cc(O)cc(O)c12 [luteolin]
- IC50 [7]: 41 ± 10 µM
- inhibitory potency relative to 3-isobutyl-2-methylxanthine (in words) [6]: comparable to or greater than 3-isobutyl-2-methylxanthine

Structure (SMILES): O=c1c(-c2ccc(O)cc2)coc2cc(O)cc(O)c12 [genistein]
- inhibitory potency relative to 3-isobutyl-2-methylxanthine (in words) [6]: comparable to or greater than 3-isobutyl-2-methylxanthine

Structure (SMILES): Oc1cc(O)c2cc(O[C@@H]3OC[C@H](O)[C@H](O)[C@H]3O)c(-c3ccc(O)c(O)c3)[o+]c2c1.[Cl-] [cyanidin-3-arabinoside, cyanidin-3-arabinoside chloride]
- rel. PDE activity (% of solvent control) ([1]; c = 600 µM): 32.3 ± 2.9%
- IC50 of single anthocyanins [1]: 108 ± 6 µg/mL
- IC50 [1]: 257 ± 13 µM

Structure (SMILES): O=c1c(O)c(-c2cc(O)c(O)c(O)c2)oc2cc(O)cc(O)c12 [myricetin]
- IC50 [6]: 125 µM

Structure (SMILES): O=C(/C=C/c1ccc(O)c(O)c1)O[C@@H]1C[C@](O)(C(=O)O)C[C@@H](O)[C@H]1O [chlorogenic acid]
- IC50 (PDE 1): 36.7 ± 1.6 µM

Structure (SMILES): O=c1c(O)c(-c2ccc(O)c(O)c2)oc2cc(O)cc(O)c12 [Quercetin]
- inhibitory potency relative to 3-isobutyl-2-methylxanthine (in words) [6]: comparable to or greater than 3-isobutyl-2-methylxanthine

Structure (SMILES): COc1cc(-c2[o+]c3cc(O)cc(O)c3cc2O[C@@H]2O[C@H](CO)[C@@H](O)[C@H](O)[C@H]2O)cc(OC)c1O.[Cl-] [malvidin-3-glucoside, malvidin-3-glucoside chloride]
- minimum rel. PDE activity (% of solvent control) ([1]; c = 1328 µM): 71.4 ± 9.7%
- IC50 (human PDE 5A1): 35.4 µM

Structure (SMILES): O=c1c(O)c(-c2ccc(O)cc2)oc2cc(O)cc(O)c12 [kaempferol]
- IC50 [6]: 58 µM

Structure (SMILES): O=C(/C=C/c1ccc(O)c(O)c1)O[C@@H]1[C@H](O)C[C@@](O)(C(=O)O)C[C@H]1OC(=O)/C=C/c1ccc(O)c(O)c1 (stereo in doubt) [3,4-dicaffeoylquinic acid]
- IC50 [7]: > 1000 µM

Structure (SMILES): OC[C@H]1O[C@@H](Oc2cc3c(O[C@@H]4O[C@H](CO)[C@@H](O)[C@H](O)[C@H]4O)cc(O)cc3[o+]c2-c2ccc(O)c(O)c2)[C@H](O)[C@@H](O)[C@@H]1O.[Cl-] [cyanidin-3,5-diglucoside, cyanidin-3,5-diglucoside chloride]
- influence on PDE activity (in words) [1]: inactive; also recorded: no effect
